Assay results as given in publication PMC8158122, “Development of Pelubiprofen Tromethamine with Improved Gastrointestinal Safety and Absorption” (Pharmaceutics, 2021).
Values after ≈ are worked out from the molar mass of the structure shown. Read-outs that look alike come from different tables or passages of the source.

Columns and labels:
[1] = PK study in rats after oral administration; format: in vivo, Sprague-Dawley (SD) rats; settings: male, Sprague-Dawley, rat, PEL in plasma, single oral dose 9.3 mg/kg PEL equivalent, n = 10
Protocol: Male Sprague-Dawley (SD) rats (8-weeks-old) from DBL Co., Ltd. (Eumseong, Korea) were maintained under constant laboratory conditions (temperature: 22 ± 3 °C, RH: 50 ± 20%, light/dark cycle: 12 h). The rats were divided into two groups, each composed of 10 rats. The animals were fasted overnight and were only allowed free access to water. […] Blood samples (500 μL) were collected directly from the jugular vein at predetermined time points (0, 0.083, 0.167, 0.25, 0.5, 0.75, 1, 2, 3, 4, and 8 h) using heparinized syringes. The collected blood samples were centrifuged immediately at 12,000 rpm for 5 min at 4 °C and the obtained plasma samples were stored at −70 °C until analysis.
The plasma concentration of PEL was determined using LC–MS/MS (Agilent 1260; Agilent Technologies Inc., Santa Clara, CA, USA). The chromatographic separation of PEL was performed using an ODS column (Poroshell 120 EC-C18, 2.1 × 30 mm, 2.7 µm, Agilent Technologies Inc., Santa Clara, CA, USA). The mobile phase (MP) consisted of 0.1% formic acid and acetonitrile with a gradient elution and the flow rate used was 0.4 mL/min. Mass spectrometric detection was done using an AB Sciex API 4000 triple quadrupole mass spectrometer (AB Sciex Instruments, Framingham, MA, USA). The electrospray ionization (ESI) source was set to positive ion mode. The mass-to-charge ratios (m/z) used were 259.0 → 195.2 for PEL and 255.1 → 208.9 for ketoprofen, which were used as the internal standards (IS). […] The assay method was validated for linearity, accuracy, and precision.
The PK parameters for PEL were calculated using the noncompartmental analysis and WinNonlin® 8.1 (Pharsight, CA, USA). The area under the plasma concentration–time curve from 0 h to the last time point (AUCt) was calculated for all samples using the linear trapezoidal method. The maximum plasma concentration and time to reach the maximum plasma concentration (Tmax) were directly obtained from the plasma concentration–time profiles.

[2] = Solubility at various pH values; format: physicochemical; settings: thermodynamic from solid, stirred 24 h, mean ± S.D. (n = 3)
Protocol: (§1) PEL and butylparaben (IS) were prepared and further diluted in a mixture of methanol and deionized water at a ratio of 4:1 (v/v) to provide a working PEL and IS solution of concentration 30 µg/mL. The PEL concentration was determined using an HPLC system (Model 1260; Agilent Technologies Inc., Santa Clara, CA, USA). Chromatographic separation was performed using a C18 column (4.6 × 150 mm, 5 µm, Waters, Milford, MA, USA) at a flow rate of 1.1 mL/min with the mobile phase consisting of methanol, water, and acetic acid at a ratio of 1200:800:1 (v/v). The sample was injected into the column, and the peaks were monitored using a UV detector at 274 nm.
The solubilities of PEL-T and PEL were compared and evaluated based on the pH changes. After dissolving 5 g of PEL-T and PEL each in 5 mL of water, a pH 1.2 solution, a pH 4.0 solution, and a pH 6.8 solution, respectively, the mixtures were stirred for 24 h, filtered using a 0.45 μm polyvinylidene difluoride (PVDF) syringe filter, and then were analyzed using an HPLC assay, as described above (Section 2.4).

[3] = design: method as in PMID 27492018, doi:10.2133/dmpk.10.637; settings: oral administration, cited from earlier work
[4] = tested on: gastric mucosa; test: Gastric mucosal injury test in rats; format: in vivo, Sprague-Dawley (SD) rats; settings: single p.o. dose equivalent to PEL 300 mg/kg, 6 h after dosing, 48 h fasted male SD rats, n = 10
Protocol: The gastric mucosal injury test was performed by KNOTUS Co., Ltd. (Guri, Korea) and approved by the Animal Ethics Committee (Protocol number: […]-354 approved 18 October 2018). Male Sprague-Dawley (SD) rats (7-weeks-old) from Orient bio Co., Ltd. […] The rats were randomly divided into three groups, each group consisting of 10 animals. […] The area of the lesions was analyzed using ImageJ software (National Institutes of Health, Bethesda, MD, USA).

[5] = Stress stability test (high temperature or high humidity); format: physicochemical
Protocol: as §1
Stability tests of PEL-T and PEL were performed under stress storage conditions. PEL-T and PEL were packed into high-density polyethylene (HDPE) bottles with caps and used as stability test samples. For stress stability, the samples were stored at a high temperature (80 ± 5 °C) or high humidity (relative humidity (RH) 90 ± 5%). The drug content and impurities were determined using the HPLC assay described above (Section 2.4) at the following time points: 0, 14, and 21 days (Tables S3 and S4).

[6] = tested on: Caco-2 cells; test: Permeability test in Caco-2 cell monolayers; format: in vitro ADME
Protocol: (§2) Caco-2 monolayer experiments were performed as previously described with a few modifications [20]. The Caco-2 cells were obtained from the Korean Cell Line Bank (Seoul, Korea) and used in the transport experiments between passages 40 and 50. The cells were cultured at 37 °C with 5% CO2 and maintained in Dulbecco’s modified Eagle’s medium with 10% fetal bovine serum, 1% nonessential amino acids, 10,000 units/mL penicillin, and 10,000 μg/mL streptomycin. For the transport studies, cells were seeded on rat tail collagen-coated Transwell insert filters on 12-well plates at 3 × 10^5 cells/500 μL and were cultured for 21–29 days. For the first 7 days, the medium was replaced every 2–3 days, and daily thereafter. Monolayer integrity was checked before and after each experiment using a Millicell-ERS instrument to determine the transepithelial electrical resistance (TEER) across the monolayer and to ensure that there were no substantial changes in the monolayer integrity throughout the duration of the experiments.
(§3) Prior to transport experiments, the cell monolayers were washed twice using Hank’s balanced salt solution (HBSS), and the Caco-2 cell Transwell model was preincubated at 37 °C for 15 min. […] The sample was pretreated using a protein precipitation method and the concentrations of PEL in each sample were determined using an LC–MS/MS assay, as described below (Section 2.9). […] The sample was pretreated using a protein precipitation method and the concentration of PEL in each sample was determined using an LC–MS/MS assay. The steady state flux (Js) and permeability coefficient (Kp) were calculated according to Equations (1) and (2):Js [ng/(cm^2 × h)] = Qr/(A × t)(1) Kp (cm/h) = Js/Cd(2) where Qr is the total permeation amount of PEL in the basolateral (for the absorptive transport) or apical (for the secretory transport) side (ng), A is the surface area of the insert (1.12 cm^2), t is the permeation time (h), and Cd is the initial drug concentration in the apical (for the absorptive transport) or basolateral (for the secretory transport) side (ng/cm^3). […]

[7] = Permeability test in Caco-2 cell monolayers; format: in vitro ADME; settings: human, Caco-2; Kp [B to A]/Kp [A to B]
Protocol: as §2, §3

[8] = design: method as in PMID 27492018, doi:10.2133/dmpk.10.637; settings: oral administration, rats; cited from earlier work

AUC(0-t) [1]: 19.2 ± 7.01 ng·h/mL
Cmax [1]: 46.3 ± 29.2 ng/mL
Tmax ([1]; plasma, po, 9.3 mg/kg): 23.4 ± 11.4 min
solubility at 24 h ([2]; aqueous buffer, pH 4.0 solution): 70 ± 40 µg/mL (≈ 271 µM)
solubility at 24 h ([2]; aqueous buffer, pH 6.8 solution): 4050 ± 140 µg/mL (≈ 15700 µM)
solubility at 24 h ([2]; simulated gastric fluid, pH 1.2 solution): 30 ± 10 µg/mL (≈ 116 µM)
solubility at 24 h ([2]; water): 130 ± 30 µg/mL (≈ 503 µM)
Changes in the drug contents in the stress stability test ([5]; 80 ± 5 °C or RH 90 ± 5%, entire period (21 days)): No significant changes
Contents ([5]; 80 ± 5 °C, 0 days): 98.6 ± 0.8%
Contents ([5]; 80 ± 5 °C, 14 days): 98.2 ± 0.6%
Contents ([5]; 80 ± 5 °C, 21 days): 97.1 ± 0.9%
Contents ([5]; RH 90 ± 5%, 0 days): 98.6 ± 0.8%
Contents ([5]; RH 90 ± 5%, 14 days): 98.9 ± 0.4%
Contents ([5]; RH 90 ± 5%, 21 days): 98.5 ± 0.4%
Efflux ratio, times higher than that of PEL-T [6]: 1.6 times
Kp B to A, times higher than that of PEL-T ([6]; secretory direction, not statistically significant): 1.3 times
efflux ratio at 120 min, 50 μM [7]: 1.24
Structure (SMILES): CC(C(=O)O)c1ccc(C=C2CCCCC2=O)cc1 (stereo not drawn) [PEL, 2-[4-(2-oxocyclohexylidenemethyl)phenyl] propionic acid]
Time to reach the maximum plasma concentration (Cmax) ([3]; female beagle dogs): 2 h
Time to reach the maximum plasma concentration (Cmax) ([3]; male beagle dogs): 1 h
Damage area (mucosal hemorrhagic lesions) [4]: 4.01%
Time to reach the maximum plasma concentration (Cmax) [8]: 30 min
